Results taken from ChEMBL document CHEMBL1133332, “Conversion of a polysaccharide to nitric oxide-releasing form. Dual-mechanism anticoagulant activity of diazeniumdiolated heparin” (2000).

Columns and labels:
Homo sapiens [1] = species on record: Homo sapiens; test: Compound (at 25 micro g/ml) was tested for antithrombotic activity in presence of heparin; assay type: functional
Homo sapiens [2] = species on record: Homo sapiens; test: compound (at 25 micro g/ml) was tested for antithrombotic activity; assay type: functional

Compound	Thrombin time (Homo sapiens [1])	Thrombin time (Homo sapiens [2])
CO[C@H]1O[C@H](CN2CCNCC2)[C@@H](O[C@@H]2O[C@H](C(=O)O)[C@@H](OC)[C@H](O)[C@H]2O)[C@H](OS(=O)(=O)O)[C@H]1NS(=O)(=O)O [HEPARIN/DIAZENIUMDIOLATE CONJUGATE]	31 s	–
COCO/N=[N+](\[O-])N1CCN(C[C@H]2O[C@H](OC)[C@H](NS(=O)(=O)O)[C@@H](OS(=O)(=O)O)[C@@H]2O[C@@H]2O[C@H](C(=O)O)[C@@H](OC)[C@H](O)[C@H]2O)CC1 [HEPARIN/DIAZENIUMDIOLATE CONJUGATE]	80 s	–
CO[C@H]1O[C@H](COS(=O)(=O)O)[C@@H](O[C@@H]2O[C@H](C(=O)O)[C@@H](OC)[C@H](O)[C@H]2O)[C@H](OS(=O)(=O)O)[C@H]1NS(=O)(=O)O [HEPARIN/DIAZENIUMDIOLATE CONJUGATE]	–	92 s
